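Test compounds were applied to cells in 96-well plates for 48 hours at 5 doses. The concentration for 50% growth inhibition is given as GI50.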 The source made the active and inactive calls. No stated cut-off is given here; in the data, active = GI50 up to about 1.1 µM and inactive = higher.
How the values were obtained:
Experiment in all cases: NCI-60 cell line screen, 48 h
SW-620 = test system: SW-620
OVCAR-8 = test system: OVCAR-8
OVCAR-5 = test system: OVCAR-5
PC-3 = test system: PC-3
KM12 = test system: KM12
SF-539 = test system: SF-539
RPMI-8226 = test system: RPMI-8226
UO-31 = test system: UO-31
NCI-H23 = test system: NCI-H23
HT-29 = test system: HT-29
LOX IMVI = test system: LOX IMVI
K562 = test system: K562
COLO 205 = test system: COLO 205
A498 = test system: A498
NCI-H522 = test system: NCI-H522
U-251 = test system: U-251
OVCAR-4 = test system: OVCAR-4
MOLT-4 = test system: MOLT-4
SNB-75 = test system: SNB-75
HCT-116 = test system: HCT-116

| Compound | GI50 (SW-620) | GI50 (OVCAR-8) | GI50 (OVCAR-5) | GI50 (PC-3) | GI50 (KM12) | GI50 (SF-539) | GI50 (RPMI-8226) | GI50 (UO-31) | GI50 (NCI-H23) | GI50 (HT-29) | GI50 (LOX IMVI) | GI50 (K562) | GI50 (COLO 205) | GI50 (A498) | GI50 (NCI-H522) | GI50 (U-251) | GI50 (OVCAR-4) | GI50 (MOLT-4) | GI50 (SNB-75) | GI50 (HCT-116) |
| --- | --- | --- | --- | --- | --- | --- | --- | --- | --- | --- | --- | --- | --- | --- | --- | --- | --- | --- | --- | --- |
| CCn1c(=O)c2c(=O)[nH][nH]c2c2ccccc21 | > 100 µM (inactive) | > 100 µM (inactive) | > 100 µM (inactive) | > 100 µM (inactive) | > 100 µM (inactive) | > 100 µM (inactive) | > 100 µM (inactive) | > 100 µM (inactive) | > 100 µM (inactive) | > 100 µM (inactive) | > 100 µM (inactive) | > 100 µM (inactive) | > 100 µM (inactive) | > 100 µM (inactive) | > 100 µM (inactive) | > 100 µM (inactive) | > 100 µM (inactive) | > 100 µM (inactive) | > 100 µM (inactive) | > 100 µM (inactive) |
| CN(C)C(=O)Oc1ccc(-c2cn3cc(NC(=O)c4ccccc4)ccc3n2)cc1 | 48.5 µM (inactive) | > 100 µM (inactive) | > 100 µM (inactive) | > 100 µM (inactive) | 55.5 µM (inactive) | > 100 µM (inactive) | 19.1 µM (inactive) | > 100 µM (inactive) | > 100 µM (inactive) | 87.3 µM (inactive) | 53 µM (inactive) | 19.5 µM (inactive) | 14.3 µM (inactive) | > 100 µM (inactive) | 26.4 µM (inactive) | 45.3 µM (inactive) | 55 µM (inactive) | 17.2 µM (inactive) | 86.1 µM (inactive) | > 100 µM (inactive) |
| C[S+](C)CC(=O)c1ccc2c(c1)Sc1ccccc1O2 | 2.33 µM (inactive) | 3.39 µM (inactive) | 5.87 µM (inactive) | 1.04 µM (active) | 0.955 µM (active) | 0.69 µM (active) | 2.59 µM (inactive) | 3.08 µM (inactive) | 3.49 µM (inactive) | 1.17 µM (inactive) | 3.18 µM (inactive) | 3.21 µM (inactive) | 1.02 µM (active) | 8.41 µM (inactive) | 1.09 µM (active) | 7.19 µM (inactive) | 3.44 µM (inactive) | 3.29 µM (inactive) | 2.7 µM (inactive) | 1.32 µM (inactive) |
| CC(=O)c1ccc(Nc2c3c(nc4ccccc24)CCCC3)cc1 | 16.9 µM (inactive) | 17.7 µM (inactive) | 13.5 µM (inactive) | 41.1 µM (inactive) | 7.29 µM (inactive) | 26.6 µM (inactive) | 27.6 µM (inactive) | 5.58 µM (inactive) | 11.3 µM (inactive) | 10.2 µM (inactive) | 10 µM (inactive) | 16.4 µM (inactive) | 11.7 µM (inactive) | > 31.8 µM (inactive) | 3.85 µM (inactive) | 19.1 µM (inactive) | 41.9 µM (inactive) | 9.59 µM (inactive) | 4.12 µM (inactive) | 13.2 µM (inactive) |
| C=CCOc1ccccc1/N=N/C(C#N)=N\Nc1ccccc1OCC=C | > 100 µM (inactive) | > 100 µM (inactive) | > 100 µM (inactive) | > 100 µM (inactive) | > 100 µM (inactive) | > 100 µM (inactive) | > 100 µM (inactive) | > 100 µM (inactive) | > 100 µM (inactive) | > 100 µM (inactive) | > 100 µM (inactive) | > 100 µM (inactive) | > 100 µM (inactive) | > 100 µM (inactive) | > 100 µM (inactive) | > 100 µM (inactive) | > 100 µM (inactive) | > 100 µM (inactive) | > 100 µM (inactive) | > 100 µM (inactive) |
| CC(=O)Nc1cc(C(=O)Nc2cc(C(=O)N3CC(CCl)c4c3cc(N)c3ccccc43)nn2C)nn1C (stereo not given) | < 0.0383 µM (active) | 0.0209 µM (active) | 0.31 µM (active) | 0.101 µM (active) | 0.188 µM (active) | 0.0191 µM (active) | 0.188 µM (active) | 0.294 µM (active) | < 0.0104 µM (active) | 0.216 µM (active) | 0.0117 µM (active) | 0.0381 µM (active) | 0.112 µM (active) | < 0.0115 µM (active) | < 0.01 µM (active) | 0.0194 µM (active) | 0.171 µM (active) | < 0.0112 µM (active) | 0.0215 µM (active) | 0.0187 µM (active) |
| O=C1CC(n2cccc2)c2cc(Br)sc21 (stereo not given) | 35 µM (inactive) | 36.9 µM (inactive) | > 100 µM (inactive) | > 100 µM (inactive) | > 100 µM (inactive) | > 100 µM (inactive) | 26.4 µM (inactive) | > 100 µM (inactive) | 39.1 µM (inactive) | > 100 µM (inactive) | 31.9 µM (inactive) | > 100 µM (inactive) | > 100 µM (inactive) | > 100 µM (inactive) | 21.6 µM (inactive) | > 100 µM (inactive) | > 100 µM (inactive) | 16.1 µM (inactive) | 7.93 µM (inactive) | 66.7 µM (inactive) |
